The values below come from patent publication US5290576A, “Tert-butyloxycarbonyl-L-tyrosyl-peptidoglycan monomer and ^125 I-labeled derivative thereof, their preparation and use” (Pliva Farmaceutska, priority 1990, dated 1994).

The test system of assay [1] is melanoma B-16. As to the kind of experiment: Antitumor (antimetastatic) activity: lung metastases in mice inoculated with melanoma B-16. As to conditions: for Inhibition % / Metastases %: counted on day 23; for Metastases %: Hanks' control = 100; for Number of metastases, mean (X): C57BL/6 mice, lung metastases counted on day 23. Format: in vivo. The procedure:
The antitumor activity of Boc-Tyr-PGM was investigated in mice, inoculated with melanoma B-16.
Mice (C5 7 BL/6, male, 4 months old), five per group, were given i.v. each 1×10^5 cells of B-16 melanoma on day 0.
One group of mice was chosen as control and was not treated further in any manner. The mice in experimental groups were given i.v. each 1 mg of Boc-Tyr-PGM, according to the following protocol:
3rd group--days 3 and 7 (total 2 mg of Boc-Tyr-PGM)
Three mice groups, which received PGM (PLIVA) i.v. according to the same protocol, were chosen as the positive control.
Macroscopically detectable lung metastases were counted on day 23.

For assay [2], the system named is antibody-forming cells (plaque-forming cells, PFC) in the spleen of mice immunized with sheep erythrocytes (SRBC). The assay can be described thus: Immunostimulating activity: plaque-forming cells in spleen of mice immunized with sheep erythrocytes (Jerne's technique). Format: in vivo. The conditions noted are these: for PFC, % (of Hanks' control): 200 μg i.v. on day +1, PFC on day +4, Hanks' control = 100; for PFC, mean (X) / PFC, range of individual values: 200 μg i.v. on day +1 after SRBC i.p., PFC in spleen on day +4. As for the experimental part: The immunostimulating activity of Boc-Tyr-PGM was tested in mice immunized with sheep erythrocytes (sheep red blood cells, SRBC).
Mice (CBA or AKR), five per group, were immunized i.p. with sheep erythrocytes (1×10^8 SRBC) in Hanks' solution. One day later (on day +1), the control group of mice receiving i.v. Hanks' solution, whereas the test group of mice was given i.v. 200 μg of Boc-Tyr-PGM in Hanks' solution. As positive control, a group of mice was used, to which 200 μg of peptidoglycan monomer (PGM) in Hanks' solution was administered i.v. Four days later (on day +4), the number of antibody-forming cells (plaque-forming cells, PFC) was determined in the spleen by Jerne's technique (Jerne, N. K., Nordin, A. A., and Henry, C. (1963), The agar plaque tecnique for recognizing antibody producing cells, in: "Cell Bound Antibodies", p. 109, Wistar Institute Press, Philadelphia).

[3] abbreviates: 1 mg i.v. on days 3 and 7 (total 2 mg).

“GlcNAc-β-(1→4)MurNAc-L-Ala-D-iGln-[(L)-meso-A2 pm-(D)-amide-(L)-D-Ala-D-Ala] [PGM, reference compound]”: in assay [1] (1 mg i.v. on day 3), the Inhibition % worked out at 50.0%; the Metastases % was 50.0%; the “Number of metastases, mean (X)” value worked out at 6.2 ± 4.4. In addition, in assay [1] (1 mg i.v. on day 7), the Inhibition % amounted to 66.5%; the Metastases % is given as 43.5%; the “Number of metastases, mean (X)” value was 5.4 ± 1.7. Moreover, in assay [1] (setting [3]), the Inhibition % amounted to 67.3%; the Metastases % came out at 42.7%; the “Number of metastases, mean (X)” value is recorded as 5.3 ± 1.7. Further, in assay [2] (AKR mice), the “PFC, % (of Hanks' control)” value stood at 130%; the “PFC, mean (X)” value is 48,668; the “PFC, range of individual values” was 27,200-61,070. In addition, in assay [2] (CBA mice), the “PFC, % (of Hanks' control)” value is 166%; the “PFC, mean (X)” value is 313,413; the “PFC, range of individual values” is on record as 198,800-449,866.

In the case of “tert-Butyloxycarbonyl-L-tyrosyl-peptidoglycan monomer [Boc-Tyr-PGM]”, in assay [1] (1 mg i.v. on day 3), the Inhibition % is listed as 38.7%; the Metastases % is reported as 61.3%; the “Number of metastases, mean (X)” value was determined as 7.6 ± 1.9. Further, in assay [1] (1 mg i.v. on day 7), the Inhibition % is 41.9%; the Metastases % came to 58.1%; the “Number of metastases, mean (X)” value is recorded as 7.2 ± 4.0. Besides, in assay [1] (setting [3]), the Inhibition % is listed as 43.6%; the Metastases % is 56.4%; the “Number of metastases, mean (X)” value is recorded as 7.0 ± 2.7. Moreover, in assay [1] (all treatment protocols (day 3, day 7, days 3 and 7)), the “inhibition rate of metastases, all treated mice groups” value was 37.8%-43.6. In addition, the “difference in inhibition rate between treatment periods and total doses” value in assay [1] (day 3 or 7, 1 mg on day 3 or total 2 mg on days 3 and 7) was “No significant difference in the inhibition rate”. In addition, the “antimetastatic effect compared with PGM (PLIVA) positive control” value in assay [1] (mouse, in vivo) was “comparable to the effect of PGM (PLIVA)”. In assay [2] (AKR mice), the “PFC, % (of Hanks' control)” value was 150%; the “PFC, mean (X)” value is reported as 55,974; the “PFC, range of individual values” was 31,730-68,670. Also, in assay [2] (CBA mice), the “PFC, % (of Hanks' control)” value is reported as 157%; the “PFC, mean (X)” value is 295,866; the “PFC, range of individual values” is 257,600-304,266. In assay [2] (both mice strains (CBA, AKR), 200 μg i.v.), the “increased number of PFC in comparison with the control group” value is on record as “approximately 50%”. Also, the “effectiveness compared with the positive control peptidoglycan monomer” value in assay [2] (both tests (CBA, AKR)) is recorded as “comparable with the effect of the positive control”.
